“Also recorded” adds a separate entry of the source.
How the values were obtained:
[1] = system: κ agonist U50,488-induced diuresis; settings: antagonism of U50,488-induced diuresis; cited from earlier work
[2] = system: κ agonist U50,488-induced diuresis; assay: Antagonism of U50,488-induced diuresis in rats; format: in vivo, male Sprague-Dawley rats; settings: for antagonism of U50,488-induced diuresis (urine output), week 0: s.c., first 5 h after dosing, U50,488 10 mg/kg; for antagonism of U50,488-induced diuresis (urine output), week 1: single s.c. dose at week 0, no further dosing

For `Oc1ccc2c3c1O[C@H]1c4[nH]c5c(c4C[C@@]4(O)[C@@H](C2)N(CC2CC2)CC[C@]314)C[C@@]1(O)[C@H]2Cc3ccc(O)c4c3[C@@]1(CCN2CC1CC1)[C@H]5O4` [Compound 1, norBNI], which “duration of κ antagonist activity” value [1] is on record?
The value was “up to 3 weeks”.

For `CC(C)[C@@H](CN1CC[C@@](C)(c2cccc(O)c2)[C@@H](C)C1)NC(=O)[C@@H]1CCc2cc(O)ccc2C1` [Compound 7a, 6-Hydroxy-1,2,3,4-tetrahydro-naphthalene-2(+)-carboxylic acid-{1-[4-(3-hydroxyphenyl)-(3R,4R)-trans-dimethyl-piperidinylmethyl]-(2S)-methylpropyl}amide], which “antagonism of the diuretic effects of U50,488 at individual doses” value ([2]; 10 and 30 mg/kg s.c., week 0, Dunnett's test vs U50,488) is on record?
The value was “significant antagonism”.

What about the “antagonism of U50,488-induced diuresis (urine output), week 0” value [2] of the same compound?
The value was “antagonized selective κ agonist U50,488-induced diuresis; also recorded: dose-related antagonism”.

What about the “duration of activity as antagonist of U50,488-induced diuresis” value ([2]; single s.c. dose) of the same compound?
The value was “less than 1 week”.

What about the “antagonism of U50,488-induced diuresis (urine output), week 1” value [2] of the same compound?
Its value is “did not show any κ antagonist activity after one week; also recorded: antagonism of U50,488 could no longer be detected”.

With `CC(C)[C@@H](CN1CC[C@@](C)(c2cccc(O)c2)[C@@H](C)C1)NC(=O)[C@H]1Cc2ccc(O)cc2CN1` [Compound 3, (3R)-7-Hydroxy-N-[(1S)-1-{[(3R,4R)-4-(3-hydroxyphenyl)-3,4-dimethyl-1-piperidinyl]methyl}-2-methylpropyl)-1,2,3,4-tetrahydro-3-isoquinolinecarboxamide, reference compound] as the compound, how does the “antagonism of U50,488-induced diuresis (urine output), week 0” value [2] read?
Its value is “dose-related antagonism”.

What about the “antagonism of U50,488-induced diuresis (urine output), week 1” value [2] of the same compound?
The value was “continued to show dose-related antagonism”.
